SMILES strings stand for the structures. Several values for one entry are separate records, joined by “and”; a condition that tells them apart may be missing. Equal entries are not always repeated.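 Following 48 hours of exposure in 96-well plates, responses at five concentrations were used to interpolate endpoints linearly. GI50: concentration for 50% inhibition of growth. TGI denotes the concentration required for complete inhibition of growth.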 Some results are limits rather than exact numbers.

Some test systems named below: NCI-H522 lung; SNB-19 CNS; HOP-92 NSCLC; BT-549 breast; HCT-15 colon; SK-MEL-28 melanoma; 786-0 renal; HT29 colon; UACC-257 melanoma; MDA-MB-231 breast.
Holding throughout (assay): NCI anticancer screen, dose series, 48 h

Consider `CC/C=C1/C(=O)C=C[C@@H]1C/C=C\CCCC(=O)OC`, for which the GI50 with NCI-H522 lung is 1.56 µM; in the assay with SNB-19 CNS, 3.27 µM; with HOP-92 NSCLC, 12.1 µM; in the assay on BT-549 breast it was 2.84 µM; in the assay on HCT-15 colon, 1.94 µM; with SK-MEL-28 melanoma, 2.52 µM. Further, the GI50 is 2.56 µM in the assay with 786-0 renal, 2.25 µM with HT29 colon, 2.51 µM in the assay on UACC-257 melanoma and 4.43 µM in the assay on MDA-MB-231 breast. In addition, the TGI is 3.57 µM in the assay with NCI-H522 lung; 12.9 µM in the assay on SNB-19 CNS; 25.1 µM with HOP-92 NSCLC; 8.15 µM with BT-549 breast; 5.31 µM in the assay with HCT-15 colon; 6.27 µM with SK-MEL-28 melanoma. Also, the TGI with 786-0 renal stood at 6.59 µM; with HT29 colon, 5.3 µM; in the assay with UACC-257 melanoma it was 7.1 µM; in the assay with MDA-MB-231 breast it was 15.4 µM.
On to `C=C(C)C(=O)Nc1ccc(NC(C)C)cc1`, for which the GI50 in the assay on NCI-H522 lung, in the assay with SNB-19 CNS, in the assay with HOP-92 NSCLC, in the assay on BT-549 breast, with HCT-15 colon and with SK-MEL-28 melanoma was greater than 100 µM in each case. Also, the GI50 with 786-0 renal, in the assay with HT29 colon, in the assay on UACC-257 melanoma and with MDA-MB-231 breast was greater than 100 µM each time. For the same compound, the TGI in the assay with NCI-H522 lung, in the assay on SNB-19 CNS, in the assay with HOP-92 NSCLC, in the assay with BT-549 breast, in the assay on HCT-15 colon and in the assay with SK-MEL-28 melanoma was greater than 100 µM throughout. Also, the TGI with 786-0 renal, in the assay on HT29 colon, with UACC-257 melanoma and in the assay on MDA-MB-231 breast was greater than 100 µM throughout.
On to `COc1ccc2cc(C(=O)/C=C/c3ccc(Cl)cc3Cl)ccc2c1`, for which the GI50 was 32.8 µM in the assay on NCI-H522 lung; 25.7 µM in the assay with SNB-19 CNS; greater than 100 µM with HOP-92 NSCLC; 0.963 µM in the assay on BT-549 breast; 9.17 µM with HCT-15 colon; 29.9 µM in the assay with SK-MEL-28 melanoma. The GI50 in the assay with 786-0 renal is 8.13 µM; with HT29 colon, 6.63 µM; with UACC-257 melanoma, 20 µM; in the assay with MDA-MB-231 breast, 44.6 µM. Besides, the TGI in the assay on NCI-H522 lung was 85.5 µM; in the assay with SNB-19 CNS, 71.5 µM; in the assay on HOP-92 NSCLC, greater than 100 µM; in the assay with BT-549 breast, 4.6 µM; with HCT-15 colon, 29.7 µM; in the assay with SK-MEL-28 melanoma, greater than 100 µM. Moreover, the TGI with 786-0 renal was 24.3 µM; in the assay with HT29 colon, 51.3 µM; in the assay with UACC-257 melanoma, 55 µM; with MDA-MB-231 breast, greater than 100 µM.
For `COc1ccc(-c2c[nH]c(C(=O)O)c2-c2cc(OC)c(OC)c(OC)c2)cc1`, the GI50 in the assay with NCI-H522 lung was 2.75 µM; in the assay with SNB-19 CNS it was 7.24 µM; in the assay with HOP-92 NSCLC it was 5.68 µM; in the assay with BT-549 breast, 10.4 µM; in the assay on HCT-15 colon, 3.66 µM; with SK-MEL-28 melanoma, greater than 100 µM. Also, the GI50 is 6.63 µM with 786-0 renal, 3.29 µM in the assay on HT29 colon, greater than 100 µM with UACC-257 melanoma and 12.4 µM in the assay with MDA-MB-231 breast. Also, the TGI with NCI-H522 lung, with SNB-19 CNS, in the assay on HOP-92 NSCLC, in the assay with BT-549 breast, in the assay with HCT-15 colon and in the assay on SK-MEL-28 melanoma was greater than 100 µM in each case. Further, the TGI in the assay on 786-0 renal, in the assay with HT29 colon, in the assay with UACC-257 melanoma and in the assay on MDA-MB-231 breast was greater than 100 µM each time.
For `CC1CCC(NC(=O)N(CCCl)N=O)CC1` (stereo unspecified), the GI50 in the assay with NCI-H522 lung is 14.1 µM; with SNB-19 CNS, 55 µM; in the assay on HCT-15 colon, 20.6 µM; in the assay on SK-MEL-28 melanoma, 18.8 µM; in the assay on 786-0 renal, 13.9 µM; in the assay on UACC-257 melanoma it was 33.5 µM. The TGI is 31.6 µM and 90 µM with NCI-H522 lung; 110 µM in the assay on SNB-19 CNS; 64.2 µM and 68.8 µM with HOP-92 NSCLC; 57.2 µM in the assay with BT-549 breast; 43.4 µM and 82.8 µM with HCT-15 colon; 35.1 µM and 93.1 µM with SK-MEL-28 melanoma. Moreover, the TGI was 32.4 µM and 64.2 µM in the assay on 786-0 renal; 109 µM with HT29 colon; 89.8 µM with UACC-257 melanoma; 91.2 µM in the assay with MDA-MB-231 breast.
As for `CCN(CC)CCCC(C)Nc1ccnc2cc(Oc3ccccc3)ccc12` (stereo unspecified), the GI50 was 3.06 µM and 3.77 µM with NCI-H522 lung; 15.8 µM and 25.4 µM in the assay on SNB-19 CNS; 5.62 µM and 3.78 µM with HOP-92 NSCLC; 7.77 µM and 14.9 µM with BT-549 breast; 4.34 µM and 3.94 µM in the assay with HCT-15 colon; 1.73 µM and 1.99 µM in the assay on SK-MEL-28 melanoma. In addition, the GI50 in the assay with 786-0 renal is 4.53 µM and 5.09 µM; with HT29 colon, 0.627 µM and 1.12 µM; in the assay with UACC-257 melanoma, 1.95 µM and 2.09 µM; with MDA-MB-231 breast, 2.05 µM and 3.47 µM. Besides, the TGI was 13 µM and 17 µM in the assay on NCI-H522 lung; 66.3 µM and > 100 µM in the assay with SNB-19 CNS; 20.5 µM and 27 µM with HOP-92 NSCLC; 21.3 µM and 30.4 µM in the assay on BT-549 breast; 28.3 µM and 20.1 µM in the assay with HCT-15 colon; 3.22 µM and 3.65 µM in the assay with SK-MEL-28 melanoma. Also, the TGI with 786-0 renal was 11.6 µM and 17.4 µM; with HT29 colon, 8.37 µM and 12 µM; in the assay with UACC-257 melanoma, 3.59 µM and 3.94 µM; with MDA-MB-231 breast, 8.41 µM and 21.9 µM.
Take `Cc1c(C(N)=O)sc2c1C(=O)N(Cc1ccccc1)C1=NN=C(c3ccc(Cl)cc3)CN12`: the GI50 in the assay on NCI-H522 lung was 3.19 µM; with SNB-19 CNS, 3.71 µM; in the assay with HOP-92 NSCLC, 3.89 µM; in the assay on BT-549 breast, 3.66 µM; in the assay on HCT-15 colon it was 0.688 µM; in the assay with SK-MEL-28 melanoma, 5.67 µM. In addition, the GI50 was 2.65 µM with 786-0 renal, 4.8 µM in the assay with HT29 colon, 3.75 µM in the assay with UACC-257 melanoma and 3.54 µM in the assay with MDA-MB-231 breast. In addition, the TGI is 13.2 µM with NCI-H522 lung; 16.1 µM with SNB-19 CNS; 14.7 µM in the assay on HOP-92 NSCLC; 16.4 µM in the assay with BT-549 breast; 17.9 µM in the assay on HCT-15 colon; 18.5 µM in the assay on SK-MEL-28 melanoma. Further, the TGI is 6.92 µM with 786-0 renal, 16.1 µM in the assay on HT29 colon, 16.5 µM in the assay with UACC-257 melanoma and 16 µM with MDA-MB-231 breast.

The values are drawn from PubChem BioAssay (NCI).
